Values of other authors in patent US20260294906A1, “TREATING PSORIASIS USING A SMALL MOLECULE INHIBITOR OF TUMOR NECROSIS FACTOR ALPHA” (SANOFI, priority 2023, published 2026).

Tests used:
sTNFα = details: O'Connell et al.; cited from earlier work
TNFR1 = details: Jurkat cells; sTNFα pre-incubated with the substance, compared with sTNFα alone; cited from earlier work

| Molecule | stabilization of the asymmetric sTNFα trimer (sTNFα) | TNFR1 signaling (RIP-1 ubiquitination and NF-κB phosphorylation) (TNFR1) |
| --- | --- | --- |
| Cc1ccc(C)c(Cn2c(C(O)c3ccncc3)nc3ccc(-c4cnn(C)c4)cc32)c1 (stereo not drawn) [UCB-9260, reference compound] | stabilizes the asymmetric sTNFα trimer | impaired |
| etanercept | – | impaired |
